Assay results as given in ChEMBL document CHEMBL5046242, “Investigation of Janus Kinase (JAK) Inhibitors for Lung Delivery and the Importance of Aldehyde Oxidase Metabolism” (J Med Chem, 2022).
≈ marks a conversion by molar mass, not a printed value.

Assays:
[1] = target: Tyrosine-protein kinase JAK1 (Homo sapiens, UniProt P23458); format: cell-based
physchem [2] = settings: buffer, pH 7.4
physchem [3] = settings: buffer, pH 6.5
Description: Solubility of the compound in stimulated lung fluid at pH 6.5 measured after 4 hrs by HPLC-UV analysis

in vitro = settings: PAMPA, pH 7.4
Description: Permeability of the compound at pH 7.4 incubated for 3 hrs by HPLC based artificial membrane permeability assay

[4] = target: Non-receptor tyrosine-protein kinase TYK2 (Homo sapiens, UniProt P29597); format: cell-based
Chain of Non-receptor tyrosine-protein kinase TYK2 (P29597 whole entry): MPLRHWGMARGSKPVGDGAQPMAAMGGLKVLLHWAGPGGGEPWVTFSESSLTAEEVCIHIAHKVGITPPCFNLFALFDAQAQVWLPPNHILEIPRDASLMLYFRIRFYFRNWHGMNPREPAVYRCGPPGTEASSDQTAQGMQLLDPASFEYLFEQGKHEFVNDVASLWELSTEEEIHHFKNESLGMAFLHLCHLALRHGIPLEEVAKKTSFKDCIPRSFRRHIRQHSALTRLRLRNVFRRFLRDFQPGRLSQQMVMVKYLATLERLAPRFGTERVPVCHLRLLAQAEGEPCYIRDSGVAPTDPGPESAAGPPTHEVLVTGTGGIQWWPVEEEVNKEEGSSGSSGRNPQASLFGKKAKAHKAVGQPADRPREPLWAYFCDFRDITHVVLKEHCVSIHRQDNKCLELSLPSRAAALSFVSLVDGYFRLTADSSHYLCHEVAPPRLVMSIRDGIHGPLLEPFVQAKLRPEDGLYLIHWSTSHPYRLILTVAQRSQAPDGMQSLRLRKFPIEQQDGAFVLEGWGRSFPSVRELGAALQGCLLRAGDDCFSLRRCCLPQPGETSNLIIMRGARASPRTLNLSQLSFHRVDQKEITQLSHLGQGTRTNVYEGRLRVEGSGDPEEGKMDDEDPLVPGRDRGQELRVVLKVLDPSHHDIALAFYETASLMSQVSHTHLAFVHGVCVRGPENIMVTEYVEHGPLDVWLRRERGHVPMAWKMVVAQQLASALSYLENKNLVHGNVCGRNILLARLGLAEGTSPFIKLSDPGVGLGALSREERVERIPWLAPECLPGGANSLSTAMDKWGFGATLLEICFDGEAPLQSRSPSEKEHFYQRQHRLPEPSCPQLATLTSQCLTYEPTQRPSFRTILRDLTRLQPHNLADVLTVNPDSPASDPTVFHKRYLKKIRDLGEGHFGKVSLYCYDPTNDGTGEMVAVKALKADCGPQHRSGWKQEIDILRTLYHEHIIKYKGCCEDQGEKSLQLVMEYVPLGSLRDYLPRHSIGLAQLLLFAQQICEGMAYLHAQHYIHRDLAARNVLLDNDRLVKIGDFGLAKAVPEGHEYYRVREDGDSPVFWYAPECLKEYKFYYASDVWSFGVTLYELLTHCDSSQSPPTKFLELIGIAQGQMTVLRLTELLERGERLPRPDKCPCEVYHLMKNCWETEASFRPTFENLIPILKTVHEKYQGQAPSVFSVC

Aurora kinase B = Aurora kinase B (Homo sapiens, UniProt Q96GD4)
Chain of Aurora kinase B (Q96GD4 whole entry): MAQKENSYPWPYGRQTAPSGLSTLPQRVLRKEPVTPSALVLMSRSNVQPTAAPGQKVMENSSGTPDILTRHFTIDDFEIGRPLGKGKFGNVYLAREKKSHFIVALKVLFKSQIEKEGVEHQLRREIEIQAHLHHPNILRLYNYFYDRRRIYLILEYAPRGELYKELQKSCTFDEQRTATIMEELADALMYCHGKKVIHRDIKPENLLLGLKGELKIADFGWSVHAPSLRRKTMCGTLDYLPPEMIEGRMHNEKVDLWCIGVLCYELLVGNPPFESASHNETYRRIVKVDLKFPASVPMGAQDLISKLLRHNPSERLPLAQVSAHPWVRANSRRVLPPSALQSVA

Chain of Tyrosine-protein kinase JAK1 (P23458 whole entry): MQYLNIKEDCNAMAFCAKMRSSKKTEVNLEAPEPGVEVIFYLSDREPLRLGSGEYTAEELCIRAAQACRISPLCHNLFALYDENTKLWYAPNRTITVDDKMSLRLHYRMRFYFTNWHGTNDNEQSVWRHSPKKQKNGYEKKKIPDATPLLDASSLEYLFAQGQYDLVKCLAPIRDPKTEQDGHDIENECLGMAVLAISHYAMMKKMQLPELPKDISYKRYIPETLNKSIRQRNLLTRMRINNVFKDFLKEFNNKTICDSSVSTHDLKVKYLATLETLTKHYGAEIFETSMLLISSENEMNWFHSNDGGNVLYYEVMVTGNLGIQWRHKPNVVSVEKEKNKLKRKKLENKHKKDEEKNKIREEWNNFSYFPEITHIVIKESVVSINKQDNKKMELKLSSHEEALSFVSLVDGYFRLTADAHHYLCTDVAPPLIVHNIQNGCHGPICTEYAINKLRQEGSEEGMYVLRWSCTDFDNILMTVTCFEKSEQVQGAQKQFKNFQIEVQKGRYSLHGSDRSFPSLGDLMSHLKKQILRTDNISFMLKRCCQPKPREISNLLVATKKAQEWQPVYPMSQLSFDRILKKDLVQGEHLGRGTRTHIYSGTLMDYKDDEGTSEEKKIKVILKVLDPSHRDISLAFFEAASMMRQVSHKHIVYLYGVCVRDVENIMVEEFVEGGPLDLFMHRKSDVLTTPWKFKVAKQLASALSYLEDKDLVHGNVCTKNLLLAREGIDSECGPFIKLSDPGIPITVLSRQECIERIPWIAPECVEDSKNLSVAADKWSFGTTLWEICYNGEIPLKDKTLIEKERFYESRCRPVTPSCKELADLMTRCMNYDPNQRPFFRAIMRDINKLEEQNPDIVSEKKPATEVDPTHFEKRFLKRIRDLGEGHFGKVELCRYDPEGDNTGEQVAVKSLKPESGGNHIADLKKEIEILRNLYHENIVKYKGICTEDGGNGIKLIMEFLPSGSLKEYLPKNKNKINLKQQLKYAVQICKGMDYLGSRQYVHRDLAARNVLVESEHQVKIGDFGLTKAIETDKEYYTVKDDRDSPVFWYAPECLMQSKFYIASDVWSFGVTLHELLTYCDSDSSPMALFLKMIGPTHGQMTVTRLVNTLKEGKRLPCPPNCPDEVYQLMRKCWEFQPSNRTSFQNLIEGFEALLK

Row | IC50 [1] [µM] | solubility kinetic at 1 h (physchem [2]) [µM] | solubility at 4 h (physchem [3]) [µg/mL] | Papp at 3 h (in vitro) [×10⁻⁶ cm/s] | IC50 [4] [µM] | IC50 (Aurora kinase B) [µM] | SMILES
1 | 0.126 | 404 (≈ 148 µg/mL) | – | – | – | – | CC(=O)N1CCC(Nc2cccc3cnc(Nc4cnn(C)c4)nc23)CC1
2 | – | – | 44 (≈ 129 µM) | 12 | – | – | CCc1cc(O)c(F)cc1-c1cc(NCCO)c2nc(N)ncc2c1
3 | 0.000501 | 11 (≈ 3.82 µg/mL) | – | – | – | – | COc1cc(-c2ccc(O)cc2)cc2cnc(Nc3cnn(C)c3)nc12
4 | 0.631 | 539 (≈ 138 µg/mL) | – | – | 0.631 | – | COc1cccc2cnc(Nc3cnn(C)c3)nc12
5 | 0.251 | 557 (≈ 204 µg/mL) | – | – | 0.316 | – | CC(=O)N1CCC(Oc2cccc3cnc(Nc4cnn(C)c4)nc23)CC1
6 | – | – | – | 1.2 | – | 12.6 | CCc1cc(O)c(F)cc1-c1cc(NCCNC)c2nc(N)ncc2c1
7 | 0.0794 | 523 (≈ 170 µg/mL) | – | – | – | – | Cn1cc(Nc2ncc3cccc(OC4CCNCC4)c3n2)cn1
